Reference: patent publication US20100286226A1, “COMBINATION THERAPY RELATED TO SEROTONIN DUAL ACTION COMPOUNDS” (H. LUNDBECK A/S, priority 2007, published 2010)

Columns and labels:
ultrasonic vocalization = details: rat, cited from earlier work
[1] = molecular target: human serotonin transporter expressed in COS-1 cell membranes (Homo sapiens, UniProt P31645); details: cited from earlier work
[2] = test system: isolation-induced aggression; details: mouse, with subeffective dose of L; cited from earlier work
[3] = test system: dorsal raphe 5-HT neurons; assay: Inhibitory effect on the firing activity of dorsal raphe 5-HT neurons (extracellular unitary recordings, anesthetized rats); type: in vivo, rat
Experimental: The experiments were carried out in male Sprague-Dawley rats (Harlan, Gannat, FRANCE) weighing 250 to 300 g at the day of the experiment and which have been kept under standard laboratory conditions (12:12 light-dark cycle with free access to food and water). The animals were anesthetized with chloral hydrate (400 mg/kg, i.p.). Supplemental doses were given to maintain constant anesthesia and to prevent any nociceptive reaction to a tail pinch.
Extracellular unitary recordings of dorsal raphe 5-HT neurons were performed with single-barreled glass micropipettes preloaded with fiberglass filaments in order to facilitate filling. The tip was broken back to 2 to 4 μm and filled with a 2M NaCl solution saturated with Blue Chicago dye. The rats (control or treated) were placed in a stereotaxic frame and a burr hole was drilled on the midline 1 mm anterior to lambda. Dorsal raphe 5-HT neurons were encountered over a distance of 1 mm starting immediately below the ventral border of the Sylvius aqueduct. These neurons were identified using the criteria of Aghajanian (Aghajanian, G. K., Essays Neurochem Neuropharmacol 2000, 3: 1-32): a slow (0.5-2.5 Hz) and regular firing rate and long-duration (0.8-1.2 ms) positive action potentials.
To determine putative synergistic effect of Compound II (2-(6-Fluoro-1H-indol-3-ylsulfanyl)-benzyl]-methyl-amine) on the inhibitory action of 5-HTP (25 mg/kg, i.v.) on the firing activity of dorsal raphe 5-HT neurons, a dose of Compound II corresponding to 20-30% of inhibition, was injected prior to and after the administration of 5-HTP.
Statistical analysis was performed with SigmaStat for Window version 4.0 software (Jandel Corporation). Average was the mean±SEM. Significance was considered for p<0.05.

serotonin transporter = molecular target: T1, serotonin transporter (Rattus norvegicus, UniProt P31652); assay: Inhibition of 3H-serotonin uptake in rat brain synaptosomes; type: biochemical; details: 3H-5-HT 10 nM, read-out: uptake inhibitory potency (IC50)
T1 construct: The P2 fraction (synaptosomal fraction) was obtained by centrifugation; from tissue; host or cells: Male Wistar rat brain (minus cerebellum), P2 synaptosomal fraction
T1 sequence (P31652 whole entry): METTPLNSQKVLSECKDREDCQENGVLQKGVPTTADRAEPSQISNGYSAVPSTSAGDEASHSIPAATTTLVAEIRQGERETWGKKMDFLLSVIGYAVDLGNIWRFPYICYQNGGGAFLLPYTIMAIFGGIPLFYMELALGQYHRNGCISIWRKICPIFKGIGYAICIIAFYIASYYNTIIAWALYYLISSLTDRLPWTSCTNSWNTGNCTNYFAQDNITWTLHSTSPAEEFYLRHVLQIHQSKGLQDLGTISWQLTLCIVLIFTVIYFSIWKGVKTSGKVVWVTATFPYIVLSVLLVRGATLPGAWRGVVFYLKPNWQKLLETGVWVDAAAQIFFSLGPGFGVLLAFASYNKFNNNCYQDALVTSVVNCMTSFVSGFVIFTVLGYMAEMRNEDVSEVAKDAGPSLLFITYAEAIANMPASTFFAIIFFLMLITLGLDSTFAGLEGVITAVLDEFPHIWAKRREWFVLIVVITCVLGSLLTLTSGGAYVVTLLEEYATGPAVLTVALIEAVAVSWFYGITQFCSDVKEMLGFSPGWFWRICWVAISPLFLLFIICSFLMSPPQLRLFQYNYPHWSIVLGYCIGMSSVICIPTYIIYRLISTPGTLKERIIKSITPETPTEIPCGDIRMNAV
Experimental: In order to test compounds at the primary, high-affinity binding site of the serotonin transporter, i.e. determine if a compound is a serotonin reuptake inhibitor, inhibition of the uptake of serotonin (5-HT) was determined.
By the following method, the inhibition of the uptake of ^3H-serotonin (^3H-5-HT) (10 nM) in rat brain synaptosomes by test compounds was determined in vitro. Exemplary methods, and also results of serotonin uptake for specific SRIs, is described in Hyttel, J., Psychopharmacology 1978, 60:13-18; Hyttel, J., Prog. Neuro-Psychopharmacol. & Biol. Psychait. 1982, 6:277-295; Hyttel, J. & Larsen, Acta Pharmacol. Tox. 1985, 56(suppl. 1):146-153; Sanchez, C. and Hyttel, J. European J. Pharm. […]
To 400 μl of the synaptosomal suspension (5 mg original tissue) on ice, 100 μl test compound in water was added. […] After shaking for 1 h and storage for 2 h in the dark, the content of radioactivity was determined by liquid scintillation counting (cpm). Uptake was obtained by subtracting the non-specific binding and passive transport measured in the presence of 10 μM […]. The measured cpm was plotted against test compound concentration, and the best fitting s-shaped curve was drawn. The uptake inhibitory potencies are expressed as IC50 values in nM (logarithmic means). Two full concentration-response curves were measured using five concentrations of test compound in triplicate.

allosteric site of SERT = allosteric site of SERT (Homo sapiens, UniProt P31645); assay: Dissociation binding studies (3H-escitalopram), allosteric modulation of the serotonin transporter
Chain of allosteric site of SERT (P31645 whole entry): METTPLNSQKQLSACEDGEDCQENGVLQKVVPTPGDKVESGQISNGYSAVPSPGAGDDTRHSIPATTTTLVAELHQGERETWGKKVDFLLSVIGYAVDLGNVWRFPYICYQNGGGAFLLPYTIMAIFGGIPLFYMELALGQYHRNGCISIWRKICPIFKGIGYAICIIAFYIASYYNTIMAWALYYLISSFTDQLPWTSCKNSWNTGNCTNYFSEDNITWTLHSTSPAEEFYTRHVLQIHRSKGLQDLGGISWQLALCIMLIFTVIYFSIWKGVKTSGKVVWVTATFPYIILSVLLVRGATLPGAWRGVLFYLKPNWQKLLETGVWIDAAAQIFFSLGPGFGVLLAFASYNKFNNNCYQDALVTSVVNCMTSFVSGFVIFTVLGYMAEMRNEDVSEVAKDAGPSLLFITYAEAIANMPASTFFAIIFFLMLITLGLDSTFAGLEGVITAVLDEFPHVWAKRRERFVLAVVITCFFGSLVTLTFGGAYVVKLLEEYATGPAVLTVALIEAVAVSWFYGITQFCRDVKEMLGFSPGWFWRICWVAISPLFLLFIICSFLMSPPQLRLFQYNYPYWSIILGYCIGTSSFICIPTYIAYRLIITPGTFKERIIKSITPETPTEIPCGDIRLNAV
Experimental: Whether a compound operates through an allosteric mechanism can be determined by in vitro dissociation experiments. Dissociation binding experiments measure the “off rate” (koff) for a radioligand of the protein. After radioligand and transporter protein are allowed to bind (i.e. form a complex), then ligand is added to block further binding of radioligand to the transporter so that the rate of dissociation can be measured. Binding (as measured by radioactivity of the radioligand:transporter complex) is measured at various times to determine the rate at which the radioligand dissociates from the transporter. Dissociation rate constants can be used to determine the half-life of the bound complex. Half-life determinations can be used to ascertain whether a compound is an allosteric modulator of the human SERT.

[4] = molecular target: norepinephrine transporter (NET) (Homo sapiens, UniProt P23975); assay: In vitro reuptake inhibitory potency at the norepinephrine transporter; type: biochemical
Chain of norepinephrine transporter (NET) (P23975 whole entry, species assumed): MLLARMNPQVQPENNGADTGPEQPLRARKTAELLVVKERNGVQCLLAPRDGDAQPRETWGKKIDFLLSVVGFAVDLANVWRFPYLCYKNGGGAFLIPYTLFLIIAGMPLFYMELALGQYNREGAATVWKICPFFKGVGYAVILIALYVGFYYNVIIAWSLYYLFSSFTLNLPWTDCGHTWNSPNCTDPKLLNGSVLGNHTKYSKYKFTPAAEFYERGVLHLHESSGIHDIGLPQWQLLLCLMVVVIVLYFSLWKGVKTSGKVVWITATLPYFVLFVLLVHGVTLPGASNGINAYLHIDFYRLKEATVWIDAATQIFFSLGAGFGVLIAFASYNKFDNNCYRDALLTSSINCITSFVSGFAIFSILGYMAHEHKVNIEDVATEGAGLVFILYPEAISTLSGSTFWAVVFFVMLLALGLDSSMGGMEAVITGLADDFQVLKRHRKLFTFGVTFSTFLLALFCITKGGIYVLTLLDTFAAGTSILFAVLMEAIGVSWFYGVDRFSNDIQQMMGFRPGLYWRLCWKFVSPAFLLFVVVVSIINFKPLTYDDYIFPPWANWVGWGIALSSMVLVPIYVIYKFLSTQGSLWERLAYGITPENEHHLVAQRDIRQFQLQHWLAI

Chain of human serotonin transporter expressed in COS-1 cell membranes (P31645 whole entry): as the sequence (P31645 whole entry) above

CN(C)CCC[C@]1(c2ccc(F)cc2)OCc2cc(C#N)ccc21 [R-citalopram]
ultrasonic vocalization compared to controls (ultrasonic vocalization; concomitant treatment): significant increase

CNCC[C@H](Oc1cccc2ccccc12)c1cccs1 [duloxetine]
stabilizing effect on radioligand:human serotonin transporter complex (dissociation from primary site) [1]: little or no stabilizing effect

CN(C)CCC[C@@]1(c2ccc(F)cc2)OCc2cc(C#N)ccc21 [escitalopram]
anxiolytic response to co-treatment with L, 5-HTP (ultrasonic vocalization; co-treatment with L, 5-HTP): markedly enhanced

Fc1ccc([C@@H]2CCNC[C@H]2COc2ccc3c(c2)OCO3)cc1 [paroxetine]
antiaggressive effect on co-administration of a subeffective dose of L, 5-HTP [2]: greatly potentiated

NC(Cc1c[nH]c2ccc(O)cc12)C(=O)O (stereo not drawn) [Compound 5-HTP, 2-amino-3-(5-hydroxy-1H-indol-3-yl)-propanoic acid]
reduction of dorsal raphe 5-HT neuron firing ([3]; 5-HTP 25 mg/kg i.v. alone (first injection), six rats, mean±SEM): 13.4±2.26% | further decrease of firing ([3]; 5-HTP 25 mg/kg injected after Compound II 0.025 mg/kg, six rats): 70.53±2.76%

COc1ccccc1N1CCN(CCN(C(=O)C2CCCCC2)c2ccccn2)CC1 [WAY-100635]
effect on spontaneous firing rate of the neuron ([3]; administered after Compound II and 5-HTP): increases the spontaneous firing rate

CNCc1ccccc1Sc1c[nH]c2cc(F)ccc12 [Compound II]
further decrease of firing ([3]; Compound II 0.025 mg/kg as second injection after 5-HTP 25 mg/kg, six rats): 82.43±2.78% | inhibition at 0.025 mg/kg ([3]; Rattus norvegicus, Neuron, Compound II 0.025 mg/kg alone (first injection), six rats, mean±SEM): 24.1 ± 4.98% | IC50 (serotonin transporter): 0.35 nM | effect on dissociation rate of 3H-escitalopram (allosteric site of SERT): significantly slowed | inhibitory effect at NET (in vitro reuptake inhibitory potency) [4]: exerts an inhibitory effect
